According to patent publication US20100324075A1, “THERAPEUTIC USE OF CARBOXYL ESTER LIPASE INHIBITORS” (UNIVERSITY OF CINCINNATI, priority 2007, published 2010):

What was measured:
CEL [1] = target: T1, CEL (Homo sapiens, UniProt P19835); assay: Serum HDL, LDL and VLDL cholesterol in a patient with suboptimal HDL given a CEL inhibitor; type: in vivo; details: daily oral dose 1 mg per kg, two weeks
T1 construct: The patient takes a daily oral dose of 1 mg per kg body of weight; from tissue; host or cells: whole organism: patient (endogenous enzyme)
T1 sequence (P19835 21-753): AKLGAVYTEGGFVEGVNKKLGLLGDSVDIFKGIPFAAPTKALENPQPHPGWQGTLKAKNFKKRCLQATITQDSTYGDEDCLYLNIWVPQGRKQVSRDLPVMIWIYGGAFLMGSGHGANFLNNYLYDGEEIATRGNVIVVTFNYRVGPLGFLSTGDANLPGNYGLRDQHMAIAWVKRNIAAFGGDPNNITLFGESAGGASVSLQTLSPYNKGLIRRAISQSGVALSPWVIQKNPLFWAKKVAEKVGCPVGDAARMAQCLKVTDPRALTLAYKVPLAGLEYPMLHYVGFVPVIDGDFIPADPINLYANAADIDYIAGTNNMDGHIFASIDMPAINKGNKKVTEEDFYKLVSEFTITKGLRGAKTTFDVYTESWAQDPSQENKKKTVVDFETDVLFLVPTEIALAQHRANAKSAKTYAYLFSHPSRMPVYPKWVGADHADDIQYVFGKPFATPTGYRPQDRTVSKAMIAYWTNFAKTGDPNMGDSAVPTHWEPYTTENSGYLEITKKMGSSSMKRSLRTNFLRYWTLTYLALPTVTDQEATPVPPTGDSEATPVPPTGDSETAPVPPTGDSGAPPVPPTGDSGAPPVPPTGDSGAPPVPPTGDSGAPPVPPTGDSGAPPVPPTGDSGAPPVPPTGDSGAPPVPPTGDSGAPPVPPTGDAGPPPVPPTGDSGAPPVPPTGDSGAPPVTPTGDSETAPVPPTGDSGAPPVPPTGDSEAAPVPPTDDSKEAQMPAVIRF
Method: A patient with suboptimal HDL cholesterol level, which is not the result of a known genetic or other predisposing condition, is prescribed (1,5-dimethylhexyl)carbamic acid 4-phenoxyphenyl ester to raise serum HDL levels. The patient takes a daily oral dose of 1 mg per kg body of weight for a period of two weeks, after which serum cholesterol in HDL, LDL, and VLDL is again measured. It is determined that HDL cholesterol has increased by 15-20%, that the ratio of HDL:LDL has increased, and that VLDL is decreased, such that risk for cardiovascular disease is reduced.
A patient with suboptimal HDL cholesterol level, which is not the result of a known genetic or other predisposing condition, is prescribed 4-methyl-1-piperidinecarboxylic acid 4-phenoxyphenyl ester to raise serum HDL levels. The patient takes a daily oral dose of 1 mg per kg body of weight for a period of two weeks, after which serum cholesterol in HDL, LDL, and VLDL is again measured. It is determined that HDL cholesterol has increased by 15-20%, that the ratio of HDL:LDL has increased, and that VLDL is decreased, such that risk for cardiovascular disease is reduced.

CEL [2] = target: T2, CEL (Mus musculus, UniProt Q64285); assay: Daily fecal cholesterol (neutral sterol) excretion in mice fed CEL inhibitor in chow (reverse cholesterol transport); type: in vivo; details: C57BL/6 mice
T2 construct: from tissue; host or cells: whole animal: wild-type C57BL/6 mice (CEL made by pancreas and liver)
T2 sequence (Q64285 21-599): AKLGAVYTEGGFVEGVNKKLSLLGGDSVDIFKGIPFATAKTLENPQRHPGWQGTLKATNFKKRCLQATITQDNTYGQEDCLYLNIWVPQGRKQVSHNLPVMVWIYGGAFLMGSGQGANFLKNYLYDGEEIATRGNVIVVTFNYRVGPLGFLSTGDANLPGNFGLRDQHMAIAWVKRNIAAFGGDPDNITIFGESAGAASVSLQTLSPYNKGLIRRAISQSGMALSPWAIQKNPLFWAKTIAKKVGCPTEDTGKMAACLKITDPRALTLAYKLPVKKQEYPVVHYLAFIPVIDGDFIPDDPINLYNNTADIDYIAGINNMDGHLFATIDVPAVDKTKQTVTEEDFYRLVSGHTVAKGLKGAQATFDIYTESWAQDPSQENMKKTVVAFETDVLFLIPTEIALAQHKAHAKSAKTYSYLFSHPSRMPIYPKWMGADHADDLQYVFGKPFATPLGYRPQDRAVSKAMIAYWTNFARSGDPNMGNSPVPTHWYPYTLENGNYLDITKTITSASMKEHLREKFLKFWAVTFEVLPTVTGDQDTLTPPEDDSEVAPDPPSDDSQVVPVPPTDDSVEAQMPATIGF
Method: FIG. 8. Excretion of neutral sterol mass is increased by feeding CEL inhibitor (1,5-dimethylhexyl)carbamic acid 4-phenoxyphenyl ester to normal C57BL/6 mice. Inhibitor was mixed with standard rodent chow and fed to mice after baseline excretion was determined. Sterol excretion was again determined after 2 weeks of inhibitor treatment. The change from baseline is plotted for each mouse (n=13).
Animals were individually housed in cages fitted with a wire platform with full access to food and water. After a 1 or 2 day acclimation period, feces were collected for 72 h and sterols were quantitated using a variation of the method described by Post et al. (Post, et al., Increased fecal bile acid excretion in transgenic mice with elevated expression of human phospholipid transfer protein. Arterioscler. Thromb. Vasc. Biol. 23:892-97 (2003)). After being dried and weighed, fecal material was ground to a fine powder. 5α-cholestane (40 μg) and [24-^14C]-taurocholic acid (0.02 μCi) were added to 0.5 g of the ground fecal material as internal standards for extraction efficiency of neutral and acidic sterols, respectively. The fecal material plus standards were suspended in 10 volumes of alkaline methanol (0.2 M NaOH in 80% methanol), incubated at 80° C. for 2 hr, and neutral sterols were separated by 3 extractions with equal volumes of petroleum ether. The combined organic fractions were evaporated under nitrogen, resuspended in hexane, and a portion was used to measure neutral sterols by gas chromatography (Shimadzu Scientific Instruments). Data reported represent the sum of areas under the curves for cholesterol, coprostanol, and lathosterol. The aqueous residue from above was filtered, washed, dried, resuspended in water, and applied to prewashed C18 Bond Elut columns (Varian Inc., Palo Alto, Calif.). Bile acids were eluted from the columns with methanol, concentrated and quantitated by colorimetric assay (Trinity Biotech). To measure fecal sterol esters, ground fecal samples were resuspended in water, extracted with petroleum ether, concentrated, resolved by TLC as above and visualized at 80° C. after staining with 10% phosphomolybdic acid in ethanol, or bands were scraped and quantitated by scintillation spectrometry.
The effect of (1,5-dimethylhexyl)carbamic acid 4-phenoxyphenyl ester on cholesterol disposal has been measured in C57BL/6 mice. Baseline daily fecal cholesterol disposal by chow-fed mice was measured over 3 days using established methods. Thereafter, the same mice were fed a chow diet to which had been added 1 milligram of (1,5-dimethylhexyl)carbamic acid 4-phenoxyphenyl ester per gram of food. The average body weight of the mice was 24 grams. Mice of this size are known to eat between 3.5 and 4 grams of chow per day. Thus, the amount of inhibitor consumed was between 3.5 and 4.0 milligrams per mouse per day or between 146 and 167 milligrams per kilogram of bodyweight. After eating inhibitor-containing diet for 2 weeks, daily fecal cholesterol excretion was again measured over 3 days. […] The average excretion at baseline was 48.9±11.3 micrograms per day per gram bodyweight (range 28.6 to 71.8), which increased to 62.1±10.4 micrograms per day per gram bodyweight (range 45.3 to 89.1) after treatment. The average change per mouse was +33.0% (range −19.3 to +95.4), with 10 of the 13 mice responding positively, 1 showing no change and 2 responding negatively).

Row | Structure (SMILES) | VLDL (CEL [1]) | increase in HDL cholesterol (CEL [1]) | ratio of HDL:LDL (CEL [1]) | average change per mouse in cholesterol excretion from baseline (CEL [2]; 1 mg/g chow, 2 weeks, n=13, range −19.3 to +95.4) | mice responding positively (increased cholesterol excretion) (CEL [2]; 1 mg/g chow, 2 weeks, 1 no change, 2 negative) | cholesterol excretion, paired data analysis vs baseline (CEL [2]; 1 mg/g chow, 2 weeks, P=0.01) | average increase in cholesterol excretion over baseline, of those that responded positively (CEL [2]; 1 mg/g chow, 2 weeks, positive responders only) [%] | average fecal cholesterol excretion after treatment (CEL [2]; 1 milligram inhibitor per gram chow for 2 weeks, n=13, baseline 48.9±11.3)
1 | CC1CCN(C(=O)Oc2ccc(Oc3ccccc3)cc2)CC1 [4-methyl-1-piperidinecarboxylic acid 4-phenoxyphenyl ester] | decreased | 15-20% | increased | – | – | – | – | –
2 | CC(C)CCCC(C)NC(=O)Oc1ccc(Oc2ccccc2)cc1 (centres unmarked) [(1,5-dimethylhexyl)carbamic acid 4-phenoxyphenyl ester] | decreased | 15-20% | increased | +33.0% | 10 of the 13 | significantly increased | 46.7 | 62.1±10.4 micrograms per day per gram bodyweight
